{"source": "the supplement of paper PMC10307832", "test_in_all_cases": "relative viability (nuclei count vs DMSO), 5 days (fraction); higher = more cells survive", "key": {"[1]": {"tested_on": "BEN", "method_in_brief": "(§1)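 Relative viability is defined as nuclei in treated wells over nuclei in vehicle wells. Duplicate plates were run and medians reported. Lung cancer cell lines in 1536-well plates were dosed by pin tool one day after seeding, with one drug or with a fixed anchor-drug dose plus five library-drug doses (not always all listed) in √10 steps, and nuclei were counted after 5 days.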"}, "[2]": {"tested_on": "NCI-H2170", "method_in_brief": "as §1"}, "[3]": {"tested_on": "HCC-44", "method_in_brief": "as §1"}, "[4]": {"tested_on": "NCI-H2087", "method_in_brief": "as §1"}, "[5]": {"tested_on": "EKVX", "method_in_brief": "as §1"}, "[6]": {"tested_on": "NCI-H647", "method_in_brief": "as §1"}, "[7]": {"tested_on": "LOU-NH91", "method_in_brief": "as §1"}, "[8]": {"tested_on": "PC-3 [JPC-3]", "method_in_brief": "as §1"}, "[9]": {"tested_on": "201T", "method_in_brief": "as §1"}, "[10]": {"tested_on": "NCI-H650", "method_in_brief": "as §1"}, "[11]": {"tested_on": "NCI-H1437", "method_in_brief": "as §1"}, "[12]": {"tested_on": "LU99A", "method_in_brief": "as §1"}, "[13]": {"tested_on": "SW 1573", "method_in_brief": "as §1"}, "[14]": {"tested_on": "NCI-H2085", "method_in_brief": "as §1"}, "[15]": {"tested_on": "NCI-H1975", "method_in_brief": "as §1"}, "[16]": {"tested_on": "EPLC-272H", "method_in_brief": "as §1"}, "[17]": {"tested_on": "H3255", "method_in_brief": "as §1"}, "[18]": {"tested_on": "NCI-H1666", "method_in_brief": "as §1"}, "[19]": {"tested_on": "LCLC-97TM1", "method_in_brief": "as §1"}, "[20]": {"tested_on": "HCC-827", "method_in_brief": "as §1"}, "[21]": {"tested_on": "COR-L 105", "method_in_brief": "as §1"}}, "data": [{"compound": "Cc1sc2c(c1C)C(c1ccc(Cl)cc1)=N[C@@H](CC(=O)OC(C)(C)C)c1nnc(C)n1-2", "note": "[JQ1] + CS(=O)(=O)N1CCN(Cc2cc3nc(-c4cccc5[nH]ncc45)nc(N4CCOCC4)c3s2)CC1 [Pictilisib] (partner 1 µM)", "values": [{"measurement": "relative viability", "setting": "[1]; first compound 0.04 µM", "result": 0.481}, {"measurement": "relative viability", "setting": "[1]; first compound 0.1265 µM", "result": 0.486}, {"measurement": "relative viability", "setting": "[1]; first compound 0.4 µM", "result": 0.461}, {"measurement": "relative viability", "setting": "[1]; first compound 1.265 µM", "result": 0.272}, {"measurement": "relative viability", "setting": "[1]; first compound 4 µM", "result": 0.205}, {"measurement": "relative viability", "setting": "[2]; first compound 0.04 µM", "result": 0.293}, {"measurement": "relative viability", "setting": "[2]; first compound 0.1265 µM", "result": 0.292}, {"measurement": "relative viability", "setting": "[2]; first compound 0.4 µM", "result": 0.261}, {"measurement": "relative viability", "setting": "[2]; first compound 1.265 µM", "result": 0.188}, {"measurement": "relative viability", "setting": "[2]; first compound 4 µM", "result": 0.152}, {"measurement": "relative viability", "setting": "[3]; first compound 0.04 µM", "result": 0.623}, {"measurement": "relative viability", "setting": "[3]; first compound 0.1265 µM", "result": 0.498}, {"measurement": "relative viability", "setting": "[3]; first compound 0.4 µM", "result": 0.532}, {"measurement": "relative viability", "setting": "[3]; first compound 1.265 µM", "result": 0.294}, {"measurement": "relative viability", "setting": "[3]; first compound 4 µM", "result": 0.213}, {"measurement": "relative viability", "setting": "[4]; first compound 0.04 µM", "result": 0.792}, {"measurement": "relative viability", "setting": "[4]; first compound 0.4 µM", "result": 1.05}, {"measurement": "relative viability", "setting": "[4]; first compound 1.265 µM", "result": 0.318}, {"measurement": "relative viability", "setting": "[4]; first compound 4 µM", "result": 0.384}, {"measurement": "relative viability", "setting": "[5]; first compound 0.04 µM", "result": 0.442}, {"measurement": "relative viability", "setting": "[5]; first compound 0.1265 µM", "result": 0.464}, {"measurement": "relative viability", "setting": "[5]; first compound 0.4 µM", "result": 0.459}, {"measurement": "relative viability", "setting": "[5]; first compound 1.265 µM", "result": 0.359}, {"measurement": "relative viability", "setting": "[5]; first compound 4 µM", "result": 0.335}, {"measurement": "relative viability", "setting": "[6]; first compound 0.04 µM", "result": 0.428}, {"measurement": "relative viability", "setting": "[6]; first compound 0.1265 µM", "result": 0.3}, {"measurement": "relative viability", "setting": "[6]; first compound 0.4 µM", "result": 0.305}, {"measurement": "relative viability", "setting": "[6]; first compound 1.265 µM", "result": 0.188}, {"measurement": "relative viability", "setting": "[6]; first compound 4 µM", "result": 0.15}, {"measurement": "relative viability", "setting": "[7]; first compound 0.04 µM", "result": 0.529}, {"measurement": "relative viability", "setting": "[7]; first compound 0.1265 µM", "result": 0.545}, {"measurement": "relative viability", "setting": "[7]; first compound 0.4 µM", "result": 0.463}, {"measurement": "relative viability", "setting": "[7]; first compound 1.265 µM", "result": 0.419}, {"measurement": "relative viability", "setting": "[7]; first compound 4 µM", "result": 0.354}, {"measurement": "relative viability", "setting": "[8]; first compound 0.04 µM", "result": 0.69}, {"measurement": "relative viability", "setting": "[8]; first compound 0.1265 µM", "result": 0.727}, {"measurement": "relative viability", "setting": "[8]; first compound 0.4 µM", "result": 0.443}, {"measurement": "relative viability", "setting": "[8]; first compound 1.265 µM", "result": 0.501}, {"measurement": "relative viability", "setting": "[8]; first compound 4 µM", "result": 0.382}, {"measurement": "relative viability", "setting": "[9]; first compound 0.04 µM", "result": 0.656}, {"measurement": "relative viability", "setting": "[9]; first compound 0.1265 µM", "result": 0.644}, {"measurement": "relative viability", "setting": "[9]; first compound 0.4 µM", "result": 0.519}, {"measurement": "relative viability", "setting": "[9]; first compound 1.265 µM", "result": 0.474}, {"measurement": "relative viability", "setting": "[9]; first compound 4 µM", "result": 0.399}, {"measurement": "relative viability", "setting": "[10]; first compound 0.04 µM", "result": 0.746}, {"measurement": "relative viability", "setting": "[10]; first compound 0.1265 µM", "result": 0.654}, {"measurement": "relative viability", "setting": "[10]; first compound 0.4 µM", "result": 0.499}, {"measurement": "relative viability", "setting": "[10]; first compound 1.265 µM", "result": 0.283}, {"measurement": "relative viability", "setting": "[10]; first compound 4 µM", "result": 0.273}, {"measurement": "relative viability", "setting": "[11]; first compound 0.04 µM", "result": 0.405}, {"measurement": "relative viability", "setting": "[11]; first compound 0.1265 µM", "result": 0.237}, {"measurement": "relative viability", "setting": "[11]; first compound 0.4 µM", "result": 0.233}, {"measurement": "relative viability", "setting": "[11]; first compound 1.265 µM", "result": 0.157}, {"measurement": "relative viability", "setting": "[11]; first compound 4 µM", "result": 0.168}, {"measurement": "relative viability", "setting": "[12]; first compound 0.04 µM", "result": 0.322}, {"measurement": "relative viability", "setting": "[12]; first compound 0.1265 µM", "result": 0.32}, {"measurement": "relative viability", "setting": "[12]; first compound 0.4 µM", "result": 0.398}, {"measurement": "relative viability", "setting": "[12]; first compound 1.265 µM", "result": 0.201}, {"measurement": "relative viability", "setting": "[12]; first compound 4 µM", "result": 0.203}, {"measurement": "relative viability", "setting": "[13]; first compound 0.04 µM", "result": 0.486}, {"measurement": "relative viability", "setting": "[13]; first compound 0.1265 µM", "result": 0.443}, {"measurement": "relative viability", "setting": "[13]; first compound 0.4 µM", "result": 0.421}, {"measurement": "relative viability", "setting": "[13]; first compound 1.265 µM", "result": 0.212}, {"measurement": "relative viability", "setting": "[13]; first compound 4 µM", "result": 0.221}, {"measurement": "relative viability", "setting": "[14]; first compound 0.04 µM", "result": 0.462}, {"measurement": "relative viability", "setting": "[14]; first compound 0.1265 µM", "result": 0.497}, {"measurement": "relative viability", "setting": "[14]; first compound 0.4 µM", "result": 0.441}, {"measurement": "relative viability", "setting": "[14]; first compound 1.265 µM", "result": 0.368}, {"measurement": "relative viability", "setting": "[14]; first compound 4 µM", "result": 0.385}, {"measurement": "relative viability", "setting": "[15]; first compound 0.04 µM", "result": 0.298}, {"measurement": "relative viability", "setting": "[15]; first compound 0.1265 µM", "result": 0.246}, {"measurement": "relative viability", "setting": "[15]; first compound 0.4 µM", "result": 0.27}, {"measurement": "relative viability", "setting": "[15]; first compound 1.265 µM", "result": 0.214}, {"measurement": "relative viability", "setting": "[15]; first compound 4 µM", "result": 0.204}, {"measurement": "relative viability", "setting": "[16]; first compound 0.04 µM", "result": 0.298}, {"measurement": "relative viability", "setting": "[16]; first compound 0.1265 µM", "result": 0.326}, {"measurement": "relative viability", "setting": "[16]; first compound 0.4 µM", "result": 0.301}, {"measurement": "relative viability", "setting": "[16]; first compound 1.265 µM", "result": 0.223}, {"measurement": "relative viability", "setting": "[16]; first compound 4 µM", "result": 0.184}, {"measurement": "relative viability", "setting": "[17]; first compound 0.04 µM", "result": 0.468}, {"measurement": "relative viability", "setting": "[17]; first compound 0.1265 µM", "result": 0.464}, {"measurement": "relative viability", "setting": "[17]; first compound 0.4 µM", "result": 0.552}, {"measurement": "relative viability", "setting": "[17]; first compound 1.265 µM", "result": 0.381}, {"measurement": "relative viability", "setting": "[17]; first compound 4 µM", "result": 0.338}, {"measurement": "relative viability", "setting": "[18]; first compound 0.04 µM", "result": 0.314}, {"measurement": "relative viability", "setting": "[18]; first compound 0.1265 µM", "result": 0.526}, {"measurement": "relative viability", "setting": "[18]; first compound 0.4 µM", "result": 0.414}, {"measurement": "relative viability", "setting": "[18]; first compound 1.265 µM", "result": 0.274}, {"measurement": "relative viability", "setting": "[18]; first compound 4 µM", "result": 0.288}, {"measurement": "relative viability", "setting": "[19]; first compound 0.1265 µM", "result": 0.28}, {"measurement": "relative viability", "setting": "[19]; first compound 0.4 µM", "result": 0.176}, {"measurement": "relative viability", "setting": "[19]; first compound 1.265 µM", "result": 0.105}, {"measurement": "relative viability", "setting": "[19]; first compound 4 µM", "result": 0.107}, {"measurement": "relative viability", "setting": "[20]; first compound 0.04 µM", "result": 1.06}, {"measurement": "relative viability", "setting": "[20]; first compound 0.4 µM", "result": 0.544}, {"measurement": "relative viability", "setting": "[20]; first compound 1.265 µM", "result": 0.911}, {"measurement": "relative viability", "setting": "[20]; first compound 4 µM", "result": 0.752}, {"measurement": "relative viability", "setting": "[21]; first compound 0.04 µM", "result": 0.374}, {"measurement": "relative viability", "setting": "[21]; first compound 0.1265 µM", "result": 0.264}, {"measurement": "relative viability", "setting": "[21]; first compound 0.4 µM", "result": 0.312}, {"measurement": "relative viability", "setting": "[21]; first compound 1.265 µM", "result": 0.304}, {"measurement": "relative viability", "setting": "[21]; first compound 4 µM", "result": 0.327}]}]}
